Test results reported in US9334285B2, “Aldosterone synthase inhibitors” (Boehringer Ingelheim International GmbH, priority 2014, dated 2016).
Like-named read-outs stand apart in the source and are kept apart here.

Legend:
[1] = biological target: T1, aldosterone synthase (CYP11B2) (Macaca fascicularis, UniProt A0A2K5UPL9); experiment: Inhibition of aldosterone synthase, cynomolgus adrenal mitochondria, aldosterone quantified by mass spectrometry; assay type: biochemical, cynomolgus monkey; details: 2 μM corticosterone, 90 minutes at 37° C.
T1 construct: employ cynomolgus adrenal gland mitochondria as the source of aldosterone synthase (CYP11B2); from tissue; host or cells: cynomolgus monkey adrenal gland mitochondria
T1 sequence (A0A2K5UPL9 1-503): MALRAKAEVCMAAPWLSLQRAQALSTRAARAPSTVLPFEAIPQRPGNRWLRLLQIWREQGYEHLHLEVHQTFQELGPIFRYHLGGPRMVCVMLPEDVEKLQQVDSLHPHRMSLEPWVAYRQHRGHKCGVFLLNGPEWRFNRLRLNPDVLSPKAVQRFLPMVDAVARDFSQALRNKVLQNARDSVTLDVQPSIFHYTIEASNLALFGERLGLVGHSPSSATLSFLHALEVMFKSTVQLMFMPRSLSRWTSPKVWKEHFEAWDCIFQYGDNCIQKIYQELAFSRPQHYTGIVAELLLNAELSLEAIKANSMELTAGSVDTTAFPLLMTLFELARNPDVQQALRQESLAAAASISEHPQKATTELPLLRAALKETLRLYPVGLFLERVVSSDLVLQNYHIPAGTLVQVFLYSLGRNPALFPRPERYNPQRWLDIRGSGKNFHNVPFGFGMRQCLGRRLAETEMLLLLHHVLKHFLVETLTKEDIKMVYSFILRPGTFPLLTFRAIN
Description: The aldosterone synthase and cortisol synthase inhibition assays employ cynomolgus adrenal gland mitochondria as the source of aldosterone synthase (CYP11B2) and cortisol synthase (CYP11B1). […] One unit of CYP11B2 and CYP11B1 activity in these preparations is defined as the amount of enzyme that generates 1 pmol of product in one hour under the conditions described.
The compounds of the invention may be evaluated for aldosterone synthase inhibition by the following assay:
Assays are performed in 96-well format in a final volume of 60 microL/well, containing 100 mM potassium phosphate, pH 7.4, 1% (v/v) DMSO, and additionally, 2 μM of corticosterone and 50 units of CYP11B2 activity. Reactions are started by the addition of NADPH to 1 mM and allowed to proceed for 90 minutes at 37° C. Reactions are terminated by the addition of 60 μL of MeCN containing an internal standard for mass spectrometry. One hundred microliters are then transferred to a glass filter plate and centrifuged at 570×g for 5 minutes and the filtrate is collected. Reaction product aldosterone is quantified by mass spectrometry. To determine the assay blank value (0% activity), NADPH is omitted from some reactions.
(§1) Dose dependent inhibition is quantified by the inclusion of compound at various concentrations. Maximum activity (100%) is defined by reactions containing NADPH, but without compound.

[2] = biological target: cortisol synthase (CYP11B1) (Macaca fascicularis, UniProt A0A2K5ULY1); experiment: Inhibition of cortisol synthesis, cynomolgus adrenal mitochondria, 11-deoxycortisol as substrate; assay type: biochemical, cynomolgus monkey; details: 150 units of CYP11B1, 11-deoxycortisol as substrate
Description: The aldosterone synthase and cortisol synthase inhibition assays employ cynomolgus adrenal gland mitochondria as the source of aldosterone synthase (CYP11B2) and cortisol synthase (CYP11B1). Mitochondria are prepared from frozen cynomolgus monkey adrenal glands according to Method A described in by J. D. McGarry et al. (Biochem. J., 1983, 214, 21-28), with a final resuspension in the AT buffer described in R. Yamaguchi et al. (Cell Death and Differentiation, 2007, 14, 616-624), frozen as aliquots in liquid nitrogen and stored at −80° C. until use. One unit of CYP11B2 and CYP11B1 activity in these preparations is defined as the amount of enzyme that generates 1 pmol of product in one hour under the conditions described.
Assays are performed as for aldosterone synthase except for the use of 150 units of CYP11B1, 11-deoxycortisol as substrate and cortisol measured as product.

rhCYP17A1 = biological target: T2, rhCYP17A1 (Homo sapiens, UniProt P05093); experiment: Inhibition of CYP17A1, progesterone to 17-α-hydroxyprogesterone, mass spectrometry; assay type: biochemical
T2 construct: purchased Cypex
T2 sequence (P05093 1-508): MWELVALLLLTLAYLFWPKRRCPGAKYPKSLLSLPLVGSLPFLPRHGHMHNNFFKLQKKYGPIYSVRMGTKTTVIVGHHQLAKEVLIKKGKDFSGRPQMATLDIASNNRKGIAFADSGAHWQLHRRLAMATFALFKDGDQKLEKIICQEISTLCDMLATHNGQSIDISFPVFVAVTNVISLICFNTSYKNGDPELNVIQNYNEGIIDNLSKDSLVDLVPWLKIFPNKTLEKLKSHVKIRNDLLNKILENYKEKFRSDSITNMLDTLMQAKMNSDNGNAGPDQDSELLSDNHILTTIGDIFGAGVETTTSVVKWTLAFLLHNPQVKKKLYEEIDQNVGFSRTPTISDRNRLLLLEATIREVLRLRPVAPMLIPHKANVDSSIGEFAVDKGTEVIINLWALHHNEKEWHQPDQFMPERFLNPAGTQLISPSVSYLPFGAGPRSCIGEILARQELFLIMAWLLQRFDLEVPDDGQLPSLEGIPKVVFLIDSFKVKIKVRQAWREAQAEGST
Description: Compounds of the invention may also be evaluated for inhibition of CYP17A1 via the following assay:
Reactions are started by the addition of NADPH to 1 mM and allowed to proceed for 15 minutes at 37° C. Reactions are terminated by the addition of 40 μL of MeCN containing an internal standard for mass spectrometry. The plates are centrifuged at 3000 rpm for 5 min and the reaction product 17-α-hydroxyprogesterone is quantified by mass spectrometry. To determine the assay blank value (0% activity), NADPH is omitted from some reactions.
as §1

CYP19A1 = biological target: T3, CYP19A1 (Homo sapiens, UniProt P11511); experiment: Inhibition of CYP19A1 (Kragie et al.); assay type: biochemical
T3 sequence (P11511 1-503): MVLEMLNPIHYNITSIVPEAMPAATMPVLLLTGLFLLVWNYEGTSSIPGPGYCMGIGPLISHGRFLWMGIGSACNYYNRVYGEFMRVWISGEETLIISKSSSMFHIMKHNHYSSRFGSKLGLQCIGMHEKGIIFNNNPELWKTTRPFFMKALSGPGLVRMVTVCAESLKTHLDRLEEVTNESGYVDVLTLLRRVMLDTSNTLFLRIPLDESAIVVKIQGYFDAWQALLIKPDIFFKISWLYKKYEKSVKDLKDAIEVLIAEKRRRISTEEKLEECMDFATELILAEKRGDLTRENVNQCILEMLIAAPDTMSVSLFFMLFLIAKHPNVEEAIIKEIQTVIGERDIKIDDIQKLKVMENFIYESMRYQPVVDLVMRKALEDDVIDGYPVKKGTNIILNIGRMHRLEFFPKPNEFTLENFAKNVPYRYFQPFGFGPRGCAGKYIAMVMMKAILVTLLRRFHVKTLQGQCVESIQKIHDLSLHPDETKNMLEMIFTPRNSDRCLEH

[3] = Cortisol Inhibition IC50, cynomolgus adrenal mitochondria
[4] = rhCYP17A1, 150 nM progesterone, 15 minutes at 37° C., read-out: CYP17A1 IC50
[5] = cynomolgus adrenal mitochondria, read-out: Cortisol Inhibition IC50

SMILES | IC50 [1] [µM] | IC50 (rhCYP17A1; [4]) [µM] | IC50 (CYP19A1; read-out: CYP19A1 IC50) [µM] | IC50 [2, 5] [µM] | IC50 [2, 3] [µM] | IC50 (rhCYP17A1) [µM] | IC50 (CYP19A1) [µM]
Cc1cc(C#N)ccc1-n1cnc2c1C(=O)OC(C)(C)C2 [Compound 13, 4-{6,6-dimethyl-4-oxo-3H,4H,6H,7H-pyrano[3,4-d]imidazol-3-yl}-3-methylbenzonitrile] | 0.0063 | > 20 | > 20 | – | 2.2 | – | –
CC1(C=O)Cc2ncn(-c3ccc(C#N)c(Cl)c3)c2C(=O)O1 (stereo not shown) [Compound 43, 2-Chloro-4-(6-formyl-6-methyl-4-oxo-6,7-dihydro-4H-pyrano[3,4-d]imidazol-3-yl)-benzonitrile] | 0.54 | > 20 | > 20 | – | > 30 | – | –
N#Cc1ccc(-n2cnc3c2C(=O)OC(CO)C3)cc1Cl (single isomer, unassigned) [Compound 33A, 2-chloro-4-[6-(hydroxymethyl)-4-oxo-3H,4H,6H,7H-pyrano[3,4-d]imidazol-3-yl]benzonitrile] | 0.089 | – | – | – | 45 | > 20 | > 20
CC1(C)Cc2ncn(-c3ccc(C#N)c(F)c3)c2C(=O)O1 [Compound 10, 4-{6,6-dimethyl-4-oxo-3H,4H,6H,7H-pyrano[3,4-d]imidazol-3-yl}-2-fluorobenzonitrile] | 0.043 | > 20 | > 20 | – | 4.2 | – | –
Cc1cc(-n2cnc3c2C(=O)OC(C)(CO)C3)ccc1C#N (single isomer, unassigned) [Compound 39B, 4-[6-(hydroxymethyl)-6-methyl-4-oxo-3H,4H,6H,7H-pyrano[3,4-d]imidazol-3-yl]-2-methylbenzonitrile] | 0.013 | > 20 | > 20 | – | 8.6 | – | –
CC1(C)Cc2ncn(-c3ccc(C#N)c(Cl)c3)c2C(=O)O1 [Compound 6, 2-chloro-4-{6,6-dimethyl-4-oxo-3H,4H,6H,7H-pyrano[3,4-d]imidazol-3-yl}benzonitrile] | 0.0053 | > 20 | > 20 | – | 2.5 | – | –

More lines, main results first:

IC50 [1] [µM] | IC50 (rhCYP17A1; [4]) [µM] | IC50 (CYP19A1; read-out: CYP19A1 IC50) [µM] | IC50 [2, 5] [µM] | SMILES | IC50 [2, 3] [µM] | IC50 (rhCYP17A1) [µM] | IC50 (CYP19A1) [µM]
0.023 | > 20 | > 20 | 3.6 | Cc1cc(C#N)ccc1-n1cnc2c1C(=O)OC(C)(CO)C2 (single isomer, unassigned) [Compound 31A, 4-[6-(hydroxymethyl)-6-methyl-4-oxo-3H,4H,6H,7H-pyrano[3,4-d]imidazol-3-yl]-3-methylbenzonitrile] | – | – | –
0.21 | > 20 | > 20 | 24 | Cc1cc(C#N)ccc1-n1cnc2c1C(=O)OC(C)(CO)C2 (single isomer, unassigned) [Compound 31B, 4-[6-(hydroxymethyl)-6-methyl-4-oxo-3H,4H,6H,7H-pyrano[3,4-d]imidazol-3-yl]-3-methylbenzonitrile] | – | – | –
0.1 | > 20 | > 20 | 26 | CC1Cc2ncn(-c3ccc(C#N)cc3)c2C(=O)O1 (single isomer, unassigned) [Compound 16A, 4[6-methyl-4-oxo-3H,4H,6H,7H-pyrano[3,4-d]imidazol-3-yl]benzonitrile] | – | – | –
0.12 | > 20 | > 20 | 19 | CC1(CO)Cc2ncn(-c3cccc(F)c3Cl)c2C(=O)O1 (single isomer, unassigned) [Compound 34B, 3-(2-chloro-3-fluorophenyl)-6-(hydroxymethyl)-6-methyl-3H,4H,6H,7H-pyrano[3,4-d]imidazol-4-one] | – | – | –
0.07 | 15 | > 20 | 24 | CC1(CO)Cc2ncn(-c3cccc(Cl)c3F)c2C(=O)O1 (single isomer, unassigned) [Compound 35A, 3-(3-chloro-2-fluorophenyl)-6-(hydroxymethyl)-6-methyl-3H,4H,6H,7H-pyrano[3,4-d]imidazol-4-one] | – | – | –
0.046 | > 20 | > 20 | 7.1 | CC1(C)Cc2ncn(-c3ccc(C#N)cc3F)c2C(=O)O1 [Compound 19, 4-{6,6-dimethyl-4-oxo-3H,4H,6H,7H-pyrano[3,4-d]imidazol-3-yl}-3-fluorobenzonitrile] | – | – | –
0.091 | > 20 | > 20 | 3.4 | CC1(C)Cc2ncn(-c3ccc(F)c(F)c3)c2C(=O)O1 [Compound 2, 3-(3,4-difluorophenyl)-6,6-dimethyl-3H,4H,6H,7H-pyrano[3,4-d]imidazol-4-one] | – | – | –
